In test [1] the target is T1, 5HT1a (Homo sapiens, UniProt P08908).
T1 sequence (P08908 1-422): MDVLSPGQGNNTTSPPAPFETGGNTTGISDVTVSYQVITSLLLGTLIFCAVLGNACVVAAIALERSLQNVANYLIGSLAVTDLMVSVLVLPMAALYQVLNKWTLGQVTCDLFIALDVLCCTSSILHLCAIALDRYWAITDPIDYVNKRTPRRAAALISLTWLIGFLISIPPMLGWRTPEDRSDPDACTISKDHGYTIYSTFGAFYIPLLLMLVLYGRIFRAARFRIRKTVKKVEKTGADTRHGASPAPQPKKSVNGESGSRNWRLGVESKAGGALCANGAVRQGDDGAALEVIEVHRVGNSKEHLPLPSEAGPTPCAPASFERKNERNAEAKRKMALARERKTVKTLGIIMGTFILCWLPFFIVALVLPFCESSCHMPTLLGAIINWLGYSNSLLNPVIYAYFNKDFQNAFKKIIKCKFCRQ
As to the kind of experiment: Primary radioligand binding assay (NIMH PDSP). Conditions: primary radiobinding assay, [3H]8-OH-DPAT.

A further test addresses T2, α1A (Alpha1A) (Homo sapiens, UniProt P35348).
T2 sequence (P35348 1-466): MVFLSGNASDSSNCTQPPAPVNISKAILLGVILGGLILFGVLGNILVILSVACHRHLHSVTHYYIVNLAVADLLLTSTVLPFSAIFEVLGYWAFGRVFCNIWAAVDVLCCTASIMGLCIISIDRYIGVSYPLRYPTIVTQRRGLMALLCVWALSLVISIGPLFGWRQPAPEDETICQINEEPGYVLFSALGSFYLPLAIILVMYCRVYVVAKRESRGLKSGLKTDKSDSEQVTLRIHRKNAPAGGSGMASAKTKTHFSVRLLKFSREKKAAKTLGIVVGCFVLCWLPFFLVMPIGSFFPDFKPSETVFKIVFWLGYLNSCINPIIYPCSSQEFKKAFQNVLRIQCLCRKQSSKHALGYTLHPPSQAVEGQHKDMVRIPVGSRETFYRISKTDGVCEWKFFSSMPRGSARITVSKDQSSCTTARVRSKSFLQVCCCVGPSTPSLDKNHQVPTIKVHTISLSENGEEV
As to the kind of experiment: Secondary radioligand binding assay (Ki).

The target in a further test is dopamine D5 (Homo sapiens, UniProt P21918). Put plainly: Primary radioligand binding assay (NIMH PDSP). To be noted: primary radiobinding assay, [3H]SCH233930.
dopamine D5, sequence (P21918 whole entry): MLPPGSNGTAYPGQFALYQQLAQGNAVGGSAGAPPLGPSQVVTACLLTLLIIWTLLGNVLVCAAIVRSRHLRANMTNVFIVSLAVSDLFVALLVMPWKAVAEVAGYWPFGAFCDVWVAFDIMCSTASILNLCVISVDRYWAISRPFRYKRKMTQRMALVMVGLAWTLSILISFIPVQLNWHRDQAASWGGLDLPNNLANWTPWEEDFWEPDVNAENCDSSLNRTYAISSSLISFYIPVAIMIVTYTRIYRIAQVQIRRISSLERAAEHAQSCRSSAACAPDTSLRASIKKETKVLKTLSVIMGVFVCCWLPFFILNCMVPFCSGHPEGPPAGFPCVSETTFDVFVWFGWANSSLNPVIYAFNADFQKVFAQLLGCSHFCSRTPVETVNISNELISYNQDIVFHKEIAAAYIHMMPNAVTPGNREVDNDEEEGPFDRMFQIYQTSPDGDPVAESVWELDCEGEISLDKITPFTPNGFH
The target of the next test is dopamine D1 (Homo sapiens, UniProt P21728). As to the kind of experiment: Primary radioligand binding assay (NIMH PDSP). To be noted: primary radiobinding assay, [3H]SCH233930.
dopamine D1, sequence (P21728 whole entry): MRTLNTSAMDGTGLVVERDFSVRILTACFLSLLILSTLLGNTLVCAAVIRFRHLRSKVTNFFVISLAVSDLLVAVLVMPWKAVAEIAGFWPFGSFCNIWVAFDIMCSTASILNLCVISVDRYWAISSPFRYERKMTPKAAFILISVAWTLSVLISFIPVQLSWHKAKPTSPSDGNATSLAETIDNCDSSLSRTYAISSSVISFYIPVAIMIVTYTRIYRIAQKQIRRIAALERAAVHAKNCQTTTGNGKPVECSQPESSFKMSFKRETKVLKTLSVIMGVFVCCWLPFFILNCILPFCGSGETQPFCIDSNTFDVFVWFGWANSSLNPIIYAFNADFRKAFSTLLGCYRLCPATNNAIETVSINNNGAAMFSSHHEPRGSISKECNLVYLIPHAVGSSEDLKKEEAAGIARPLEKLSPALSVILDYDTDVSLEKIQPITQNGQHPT
The target in test [2] is T3, dopamine D3 (Homo sapiens, UniProt P35462). As to the kind of experiment: Secondary radioligand binding assay (Ki).
T3 sequence (P35462 whole entry): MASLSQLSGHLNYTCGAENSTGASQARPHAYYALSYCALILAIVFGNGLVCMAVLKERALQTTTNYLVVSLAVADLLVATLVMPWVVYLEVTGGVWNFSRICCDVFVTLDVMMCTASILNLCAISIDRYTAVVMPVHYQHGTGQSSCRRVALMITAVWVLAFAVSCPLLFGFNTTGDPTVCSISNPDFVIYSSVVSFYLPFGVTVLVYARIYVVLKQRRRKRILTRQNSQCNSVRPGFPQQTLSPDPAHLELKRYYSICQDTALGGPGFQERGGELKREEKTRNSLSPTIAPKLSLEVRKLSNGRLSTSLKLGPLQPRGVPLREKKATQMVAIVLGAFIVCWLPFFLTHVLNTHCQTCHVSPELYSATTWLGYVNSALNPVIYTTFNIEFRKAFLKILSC
Experimental: (§1) Radioligand is diluted to five times the assay concentration (see Table 18) in Standard Binding Buffer. Typically, the assay concentration of radioligand is a value between one half the KD and the KD of a particular radioligand at its target. 50 μl aliquots of radioligand are dispensed into the wells of a 96-well plate containing 100 μl of Standard Binding Buffer. Then, duplicate 50 μl aliquots of the test and reference compound dilutions are added.
(§2) The 250 μl reactions are incubated at room temperature and shielded from light (to prevent photolysis of light-sensitive ligands) for 1.5 hours, then harvested by rapid filtration onto Whatman GF/B glass fiber filters pre-soaked with 0.3% polyethyleneimine using a 96-well Brandel harverster. Four rapid 500 μl washes are performed with chilled Standard Binding Buffer to reduce non-specific binding. Filters are placed in 6 ml scintillation tubes and allowed to dry overnight. The next day, 4 ml of EcoScint scintillation cocktail (National Diagnostics) are added to each tube. The tubes are capped, labeled, and counted by liquid scintillation counting. […] The filter mats are dried, then scintillant is melted onto the filters and the radioactivity retained on the filters is counted in a Microbeta scintillation counter.
(§3) Raw data (dpm) representing total radioligand binding (i.e. specific+non-specific binding) are plotted as a function of the logarithm of the molar concentration of the competitor (i.e. test or reference compound).
Assay Buffers: Dopamine Binding Buffer (50 mM NaCl, 50 mM HEPES-HCl, 5 mM MgCl2, 0.5 mM EDTA, pH 7.4)
(§4) Membrane Fraction Source: Transiently or stably transfected cell lines (e.g. HEK293, COS, CHO, NIH3T3)
The method is carried out in the manner described for the serotonin receptor assay above. Eleven dilutions (5× assay concentration) of the test and reference (see Table 19) compounds are prepared in Dopamine Binding Buffer by serial dilution, as previously described. Radioligand is diluted to five times the assay concentration (see Table 20) in Dopamine Binding Buffer.
The next test addresses T4, Alpha1D (Homo sapiens, UniProt P25100).
T4 sequence (P25100 1-572): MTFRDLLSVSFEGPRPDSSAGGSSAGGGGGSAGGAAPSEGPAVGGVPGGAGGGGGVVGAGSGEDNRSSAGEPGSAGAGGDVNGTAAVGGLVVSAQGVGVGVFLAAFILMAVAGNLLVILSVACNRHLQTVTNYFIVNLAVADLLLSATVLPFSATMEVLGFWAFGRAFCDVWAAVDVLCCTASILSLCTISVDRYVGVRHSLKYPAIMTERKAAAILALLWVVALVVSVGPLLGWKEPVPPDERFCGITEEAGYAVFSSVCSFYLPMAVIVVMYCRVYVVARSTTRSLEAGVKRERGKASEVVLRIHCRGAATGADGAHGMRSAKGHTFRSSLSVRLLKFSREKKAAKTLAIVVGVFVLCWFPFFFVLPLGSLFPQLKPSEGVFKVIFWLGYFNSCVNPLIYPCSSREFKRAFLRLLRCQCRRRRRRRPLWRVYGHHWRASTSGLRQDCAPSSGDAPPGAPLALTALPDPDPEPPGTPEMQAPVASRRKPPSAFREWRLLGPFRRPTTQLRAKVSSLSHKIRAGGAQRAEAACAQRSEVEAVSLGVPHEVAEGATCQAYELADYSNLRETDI
As to the kind of experiment: Primary radioligand binding assay (NIMH PDSP). To be noted: primary radiobinding assay, [3H]Prazosin.

Another test addresses dopamine D2 (Homo sapiens, UniProt P14416). As to the kind of experiment: Primary radioligand binding assay (NIMH PDSP). To be noted: primary radiobinding assay, [3H]N-methylspiperone.
Another test deals with T5, dopamine D4 (Homo sapiens, UniProt P21917).
T5 sequence (P21917 1-419): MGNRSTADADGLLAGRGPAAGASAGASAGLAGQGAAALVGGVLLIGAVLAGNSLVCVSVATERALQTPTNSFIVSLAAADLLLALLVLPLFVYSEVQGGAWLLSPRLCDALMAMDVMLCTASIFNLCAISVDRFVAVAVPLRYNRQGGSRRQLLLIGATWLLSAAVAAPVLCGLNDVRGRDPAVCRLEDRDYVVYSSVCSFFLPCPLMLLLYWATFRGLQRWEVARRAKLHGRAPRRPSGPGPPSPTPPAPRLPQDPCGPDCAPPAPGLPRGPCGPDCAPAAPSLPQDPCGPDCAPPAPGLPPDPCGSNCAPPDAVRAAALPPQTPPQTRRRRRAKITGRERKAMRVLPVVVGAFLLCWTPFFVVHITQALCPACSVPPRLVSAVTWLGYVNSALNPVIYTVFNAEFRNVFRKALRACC
As to the kind of experiment: Primary radioligand binding assay (NIMH PDSP). Conditions: primary radiobinding assay, N-methylspiperone.

In the next test the target is T6, Alpha1A (Homo sapiens, UniProt P35348).
T6 sequence (P35348 1-466): T2 sequence (P35348 1-466)
As to the kind of experiment: Primary radioligand binding assay (NIMH PDSP). Conditions: primary radiobinding assay, [3H]Prazosin.

The next test deals with 5-HT2B (Homo sapiens, UniProt P41595). As to the kind of experiment: Secondary radioligand binding assay (Ki).
5-HT2B, sequence (P41595 whole entry, species assumed): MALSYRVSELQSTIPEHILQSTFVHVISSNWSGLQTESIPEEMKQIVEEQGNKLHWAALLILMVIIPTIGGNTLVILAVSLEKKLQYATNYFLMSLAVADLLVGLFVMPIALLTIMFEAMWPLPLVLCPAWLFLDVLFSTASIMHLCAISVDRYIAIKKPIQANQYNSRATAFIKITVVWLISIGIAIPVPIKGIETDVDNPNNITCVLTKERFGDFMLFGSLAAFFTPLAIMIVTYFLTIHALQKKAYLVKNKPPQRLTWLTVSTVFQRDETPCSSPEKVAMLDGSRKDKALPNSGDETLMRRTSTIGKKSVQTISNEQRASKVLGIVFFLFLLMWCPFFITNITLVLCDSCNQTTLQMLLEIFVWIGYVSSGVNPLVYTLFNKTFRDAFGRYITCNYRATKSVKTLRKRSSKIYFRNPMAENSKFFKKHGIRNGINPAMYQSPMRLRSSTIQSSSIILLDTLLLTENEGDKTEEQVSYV
Test [3] concerns the target T3, dopamine D3. As to the kind of experiment: Primary radioligand binding assay (NIMH PDSP). To be noted: primary radiobinding assay, N-methylspiperone.
Test [4] addresses T1, 5HT1a. As to the kind of experiment: Secondary radioligand binding assay (Ki).
Experimental: (§5) Assay Buffer: Standard Binding Buffer (50 mM Tris-HCl, 10 mM MgCl2, 1 mM EDTA, pH 7.4)
(§6) Membrane Fraction Source: Transiently or stably transfected cell lines (e.g., HEK293, COS, CHO, NIH3T3)
as §1, §2, §3
Setting [5] is: Table 23: Selectivity of Dopamine D3 over α1 Receptors, ratio of Ki.
Where [6] appears, read: Table 24: Selectivity of 5HT1A over α1 Receptors, ratio of Ki.

Broadly, the Ki is a measure of affinity in units of concentration, obtained from inhibition or displacement.

Where a name gives a salt, the structure may show the parent alone.

dopamine D2, sequence (P14416 whole entry, species assumed): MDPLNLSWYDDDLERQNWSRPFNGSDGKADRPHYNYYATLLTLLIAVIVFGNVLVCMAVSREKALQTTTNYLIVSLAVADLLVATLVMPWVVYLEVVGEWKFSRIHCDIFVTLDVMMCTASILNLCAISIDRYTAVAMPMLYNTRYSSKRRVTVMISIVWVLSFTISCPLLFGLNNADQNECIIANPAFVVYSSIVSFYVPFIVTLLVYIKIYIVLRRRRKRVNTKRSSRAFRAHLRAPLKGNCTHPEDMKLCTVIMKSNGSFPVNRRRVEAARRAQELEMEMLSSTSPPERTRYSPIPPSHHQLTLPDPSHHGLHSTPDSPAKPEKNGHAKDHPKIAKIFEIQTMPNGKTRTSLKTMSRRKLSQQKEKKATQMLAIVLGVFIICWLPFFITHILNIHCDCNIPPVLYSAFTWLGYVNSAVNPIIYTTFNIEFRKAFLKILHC
Experimental for 5-HT2B: as §5, §6, §1, §2, §3
Experimental for α1A (Alpha1A): as §1, §2, §3
Adrenergic Receptors: α1A, α1B, α2A, α2B, α2C, β1, β2, β3
as §4
The method is carried out in the manner described for the serotonin receptor assay above, except where described below. Eleven dilutions (5× assay concentration) of the test and reference (see Table 20) compounds are prepared in the appropriate buffer by serial dilution, as previously described. Radioligand is diluted to five times the assay concentration (see Table 21) in the appropriate buffer.
The 250 μl reactions are incubated at room temperature and shielded from light (to prevent photolysis of light-sensitive ligands) for 1 hour (for α1 receptors, 40 min for α2 receptors, and 1.5 hours for β receptors), then harvested by rapid filtration onto Whatman GF/B glass fiber filters pre-soaked with 0.3% polyethyleneimine using a 96-well Brandel harverster. Four rapid 500-μl washes are performed with chilled distilled water (for α1 and β receptors) or 0.1% polyethyleneimine (for α2 receptors) to reduce non-specific binding. Filters are placed in 6 ml scintillation tubes and allowed to dry overnight and the samples are treated to obtain data as described above.

Turning to `COc1ccc2c(c1)C(=O)N(CCN1CCN(c3ccccc3OC)CC1)C2` [GFR-VII-280-HCl], the “5ht1a (% inh)” value on 5HT1a [1] was determined as 92 % inh. The inhibition constant Ki on α1A (Alpha1A) is 8.5 nM; on dopamine D3 [2], 180 nM; at 5-HT2B, 242 nM; on 5HT1a [4], 2.4 nM. Also, the “D5 (% inh)” value on dopamine D5 is listed as 6 % inh. On dopamine D1, the “D1 (% inh)” value amounted to 30 % inh. Further, the α1/D2 on dopamine D3 [2] (Table 23: Selectivity of Dopamine D3 over average of α1 Receptors) worked out at 0.1; at 5HT1a [4] (Table 24: Selectivity of 5HT1A over average of α1 Receptors) it was 5.9. Moreover, the α1A/D2 was 0.05 on dopamine D3 [2] (setting [5]) and 3.5 on 5HT1a [4] (setting [6]). Moreover, the values for the α1B/D2 at dopamine D3 [2] (setting [5]) and at 5HT1a [4] (setting [6]) were 0.16 and 12.1, respectively. Further, the α1D/D2 at dopamine D3 [2] (setting [5]) is recorded as 0.03; at 5HT1a [4] (setting [6]) it was 2.1. In addition, at Alpha1D, the “Alpha1D (% inh)” value was determined as 98.7 % inh. On dopamine D2, the “D2 (% inh)” value worked out at 69.8 % inh. Besides, the “D4 (% inh)” value on dopamine D4 is given as 95.9 % inh. Moreover, the “Alpha1A (% inh)” value on Alpha1A is 101.5 % inh. Besides, the “D3 (% inh)” value on dopamine D3 [3] stood at 95.7 % inh.

The record behind these values is patent US10381110B2, “Molecules” (University of Dundee, priority 2010, dated 2019).
